From US11179407B2, “Method for synthetically producing arabinogalactan compounds derived from plants and uses of said compounds for the prophylaxis of allergic reactions” (Forschungszentrum Borstel Leibniz-Zentrum für Medizin und …, priority 2015, dated 2021)

What was measured:
[1] = tested on: allergic airway inflammation; assay: mouse model of allergic airway inflammation (OVA/Alum sensitization, OVA aerosol challenge): BAL cells and lung sections; assay type: in vivo, mouse (BALB/c)
Method: Female BALB/c mice (Charles River, Sulzfeld, Germany) aged 7-8 weeks were used and acclimated to the animal facility for 14 days prior to experiments. Animals had access to food and water ad libitum. All experimental procedures were approved by the responsible animal ethics committees. Mice were sensitized by intraperitoneal injection of 20 μg ovalbumin (OVA; GradeV; Sigma, St. Louis, Mo.) emulsified in 2.2 mg aluminum hydroxide (ImjectAlum; Pierce, Rockford, Ill.) in a total volume of 200 μl on days 1 and 14. On days 28 and 38 mice were challenged via the airways with 1% OVA aerosol for 20 min using a PARI-Boy aerosol generator. Mice were treated with the synthetic substances during the sensitization phase. Substances were administered intranasally in 50 μl of PBS. Mice were treated 14 times beginning on the day of the first OVA injection and the last treatment six days before the second OVA-aerosol challenge. Control groups were sensitized as described above and treated 14 times with phosphate buffered saline (PBS). Three days after OVA challenge lungs were lavaged via a tracheal tube with 2×1 ml PBS, and leukocytes in the lavage fluid were counted. After centrifugation, BAL fluid was frozen for further analysis. […] The percentages of eosinophils, lymphocytes and macrophages in BAL samples were determined by light microscopy. […]

[2] = tested on: IL-5 and IL-13 production by spleen cells; assay: in vitro cytokine production (IL-5, IL-13) of mouse splenocytes re-stimulated with OVA after in vivo treatment; set-up: species or system mouse (BALB/c); conditions: FIG. 3, i.n. treatment during sensitization and challenge
Method: (§1) Mice were sensitized by intraperitoneal injection of 20 μg ovalbumin (OVA; GradeV; Sigma, St. Louis, Mo.) emulsified in 2.2 mg aluminum hydroxide (ImjectAlum; Pierce, Rockford, Ill.) in a total volume of 200 μl on days 1 and 14. On days 28 and 38 mice were challenged via the airways with 1% OVA aerosol for 20 min using a PARI-Boy aerosol generator.
(§2) Mice were treated with the synthetic substances during the sensitization phase. Substances were administered intranasally in 50 μl of PBS. Mice were treated 14 times beginning on the day of the first OVA injection and the last treatment six days before the second OVA-aerosol challenge. Control groups were sensitized as described above and treated 14 times with phosphate buffered saline (PBS).
Spleens were harvested 3 days after the second aerosol challenge. Single cell suspensions were prepared by mechanical disruption and erythrocytes were lysed. Spleen cells were then cultured at a concentration of 5×10^6/ml in complete tissue culture medium (CTCM) (RPMI 1640 with 10% fetal calf serum (FCS), 2 mM L-glutamine, 100 U/ml penicillin, 100 μg/ml streptomycin, all from Biochrom, Berlin, Germany). To stimulate specific cytokine production OVA was added to a final concentration of 50 μg/ml. […] Levels of IL-5 and IL-13 were assessed by using optEIA kits (BD Biosciences, Heidelberg, Germany) according to the manufacturer's instructions.

IgE = assay: total IgE in BAL fluid by ELISA in OVA/Alum mouse model; assay type: in vivo, mouse (BALB/c); conditions: FIG. 3, i.n. treatment
Method: as §1, §2
Blood was collected by tail vein puncture two days after the second aerosol challenge. BAL was collected as described above. Levels of total IgE in serum or BAL fluid were determined by ELISA (Ebioscience). Levels of BSA-specific IgG1 were determined by indirect ELISA. Briefly, plates were coated with 50 μg/ml BSA followed by blocking with 1% low fat milk powder. The serum was diluted 1/100 in PBS and incubated on the BSA coated wells for 1 h, followed by detection of bound antibodies by alkaline phosphatase coupled rat anti mouse IgG1 (BDbiosciences).

OCC1O[C@@H](OCC2O[C@@H](OCC3O[C@@H](OCCCCCc4ccc(N=C=S)cc4)C(O)C(O)[C@H]3O)C(O)C(O[C@H]3O[C@@H](CO[C@@H]4O[C@@H](CO)C(O)C4O)C(O)C3O)[C@H]2O)C(O)C(O)[C@H]1O (stereo partly shown) [Araf2Galp3]
eosinophilic airway inflammation ([1]; FIG. 3, i.n. treatment, BAL): not able to reduce these parameters significantly
goblet cell metaplasia ([1]; FIG. 3 experiment, determined in lung sections): not able to reduce these parameters significantly
Th2 response as measured by in vitro production of IL-5 and IL-13 by spleen cells [2]: not able to reduce these parameters significantly
IgE production (IgE): not able to reduce these parameters significantly
